# According to the NIST ThermoML archive (doi:10.1021/acs.jced.5b00662):
# Where “and” joins values, the source holds several entries; their conditions need not be identical. Equal entries are not always repeated. ± gives the expanded uncertainty stated by the source.
# Experiment: not given
# Conditions: 333.15 K; 101.33 kPa; Liquid; Sing-around technique in a fixed-path interferometer
row,speed of sound [m/s],Compound
1,1178.5 ± 1.5,CCOCCO [2-ethoxyethan-1-ol]
2,1107.9 ± 2.3,CCOCCOCCOCC [diethylene glycol diethyl ether]

# Same assay, conditions: 333.15 K; 101.33 kPa; Liquid; Vibrating tube method
row,mass density,Compound
1,1092.4 ± 2 kg/m3 and 1093.4 ± 2 kg/m3,OCCOCCOCCO [triethylene glycol]
2,952.2 ± 4.1 kg/m3 and 953.5 ± 4.1 kg/m3,"CCOCCOCCO [3,6-dioxa-1-octanol]"
3,895 ± 2 kg/m3 and 895.1 ± 2 kg/m3,CCOCCO [2-ethoxyethan-1-ol]
4,868.7 ± 4 kg/m3 and 870.7 ± 4.1 kg/m3,CCOCCOCCOCC [diethylene glycol diethyl ether]

# Same assay, conditions: 338.15 K; 101.33 kPa; Liquid; Concentric cylinders viscometry
row,viscosity [mPa·s],Compound
1,8.221 ± 0.33,OCCOCCOCCO [triethylene glycol]
2,1.583 ± 0.066,"CCOCCOCCO [3,6-dioxa-1-octanol]"
3,0.895 ± 0.037,CCOCCO [2-ethoxyethan-1-ol]
4,0.699 ± 0.029,CCOCCOCCOCC [diethylene glycol diethyl ether]

# Same assay, conditions: 338.15 K; 101.33 kPa; Liquid; Vibrating tube method
row,mass density [kg/m3],Compound
1,1089.5 ± 2,OCCOCCOCCO [triethylene glycol]
2,949 ± 4.1,"CCOCCOCCO [3,6-dioxa-1-octanol]"
3,890.4 ± 2,CCOCCO [2-ethoxyethan-1-ol]
4,865.9 ± 4,CCOCCOCCOCC [diethylene glycol diethyl ether]

# Same assay, conditions: 343.15 K; 101.33 kPa; Liquid; Concentric cylinders viscometry
row,viscosity [mPa·s],Compound
1,7.137 ± 0.29,OCCOCCOCCO [triethylene glycol]
2,1.456 ± 0.061,"CCOCCOCCO [3,6-dioxa-1-octanol]"
3,0.829 ± 0.034,CCOCCO [2-ethoxyethan-1-ol]
4,0.658 ± 0.028,CCOCCOCCOCC [diethylene glycol diethyl ether]

# Same assay, conditions: 343.15 K; 101.33 kPa; Liquid; Sing-around technique in a fixed-path interferometer
row,speed of sound [m/s],Compound
1,1477.5 ± 1.6,OCCOCCOCCO [triethylene glycol]
2,1218.9 ± 2.3,"CCOCCOCCO [3,6-dioxa-1-octanol]"
3,1143.7 ± 1.5,CCOCCO [2-ethoxyethan-1-ol]
4,1071.6 ± 2.3,CCOCCOCCOCC [diethylene glycol diethyl ether]

# Same assay, conditions: 343.15 K; 101.33 kPa; Liquid; Vibrating tube method
row,mass density,Compound
1,1085.6 ± 2 kg/m3 and 1084.5 ± 2 kg/m3,OCCOCCOCCO [triethylene glycol]
2,944.4 ± 4.1 kg/m3 and 943.1 ± 4.1 kg/m3,"CCOCCOCCO [3,6-dioxa-1-octanol]"
3,885.5 ± 2 kg/m3 and 885.2 ± 2 kg/m3,CCOCCO [2-ethoxyethan-1-ol]
4,861 ± 4 kg/m3 and 858.9 ± 4 kg/m3,CCOCCOCCOCC [diethylene glycol diethyl ether]

# Same assay, conditions: 348.15 K; 101.33 kPa; Liquid; Concentric cylinders viscometry
row,viscosity [mPa·s],Compound
1,6.243 ± 0.25,OCCOCCOCCO [triethylene glycol]
2,1.343 ± 0.056,"CCOCCOCCO [3,6-dioxa-1-octanol]"
3,0.77 ± 0.032,CCOCCO [2-ethoxyethan-1-ol]
4,0.621 ± 0.026,CCOCCOCCOCC [diethylene glycol diethyl ether]

# Same assay, conditions: 348.15 K; 101.33 kPa; Liquid; Vibrating tube method
row,mass density [kg/m3],Compound
1,1081.7 ± 2,OCCOCCOCCO [triethylene glycol]
2,939.9 ± 4.1,"CCOCCOCCO [3,6-dioxa-1-octanol]"
3,880.7 ± 2,CCOCCO [2-ethoxyethan-1-ol]
4,856.1 ± 4,CCOCCOCCOCC [diethylene glycol diethyl ether]

# Same assay, conditions: 353.15 K; 101.33 kPa; Liquid; Concentric cylinders viscometry
row,viscosity [mPa·s],Compound
1,5.487 ± 0.22,OCCOCCOCCO [triethylene glycol]
2,1.225 ± 0.051,"CCOCCOCCO [3,6-dioxa-1-octanol]"
3,0.725 ± 0.03,CCOCCO [2-ethoxyethan-1-ol]
4,0.587 ± 0.025,CCOCCOCCOCC [diethylene glycol diethyl ether]

# Same assay, conditions: 353.15 K; 101.33 kPa; Liquid; Vibrating tube method
row,mass density [kg/m3],Compound
1,1077.8 ± 2,OCCOCCOCCO [triethylene glycol]
2,935.3 ± 4.1,"CCOCCOCCO [3,6-dioxa-1-octanol]"
3,875.8 ± 2,CCOCCO [2-ethoxyethan-1-ol]
4,851.2 ± 4,CCOCCOCCOCC [diethylene glycol diethyl ether]

# Same assay, conditions: 358.15 K; 101.33 kPa; Liquid; Concentric cylinders viscometry
row,viscosity [mPa·s],Compound
1,4.874 ± 0.2,OCCOCCOCCO [triethylene glycol]
2,1.153 ± 0.048,"CCOCCOCCO [3,6-dioxa-1-octanol]"
3,0.666 ± 0.027,CCOCCO [2-ethoxyethan-1-ol]
4,0.556 ± 0.023,CCOCCOCCOCC [diethylene glycol diethyl ether]

# Same assay, conditions: 358.15 K; 101.33 kPa; Liquid; Vibrating tube method
row,mass density [kg/m3],Compound
1,1073.8 ± 2,OCCOCCOCCO [triethylene glycol]
2,930.7 ± 4.1,"CCOCCOCCO [3,6-dioxa-1-octanol]"
3,871 ± 2,CCOCCO [2-ethoxyethan-1-ol]
4,846.3 ± 4,CCOCCOCCOCC [diethylene glycol diethyl ether]

# Same assay, conditions: 363.15 K; 101.33 kPa; Liquid; Concentric cylinders viscometry
row,viscosity [mPa·s],Compound
1,4.346 ± 0.18,OCCOCCOCCO [triethylene glycol]
2,1.072 ± 0.045,"CCOCCOCCO [3,6-dioxa-1-octanol]"
3,0.623 ± 0.026,CCOCCO [2-ethoxyethan-1-ol]
4,0.526 ± 0.022,CCOCCOCCOCC [diethylene glycol diethyl ether]

# Same assay, conditions: 363.15 K; 101.33 kPa; Liquid; Vibrating tube method
row,mass density [kg/m3],Compound
1,1069.8 ± 2,OCCOCCOCCO [triethylene glycol]
2,926.1 ± 4.1,"CCOCCOCCO [3,6-dioxa-1-octanol]"
3,866.1 ± 2,CCOCCO [2-ethoxyethan-1-ol]
4,841.4 ± 4,CCOCCOCCOCC [diethylene glycol diethyl ether]

# Same assay, conditions: 368.15 K; 101.33 kPa; Liquid; Concentric cylinders viscometry
row,viscosity [mPa·s],Compound
1,3.896 ± 0.16,OCCOCCOCCO [triethylene glycol]
2,0.997 ± 0.042,"CCOCCOCCO [3,6-dioxa-1-octanol]"
3,0.584 ± 0.024,CCOCCO [2-ethoxyethan-1-ol]
4,0.498 ± 0.021,CCOCCOCCOCC [diethylene glycol diethyl ether]

# Same assay, conditions: 368.15 K; 101.33 kPa; Liquid; Vibrating tube method
row,mass density [kg/m3],Compound
1,1065.9 ± 2,OCCOCCOCCO [triethylene glycol]
2,921.4 ± 4.1,"CCOCCOCCO [3,6-dioxa-1-octanol]"
3,861.2 ± 2,CCOCCO [2-ethoxyethan-1-ol]
4,836.5 ± 4,CCOCCOCCOCC [diethylene glycol diethyl ether]

# Same assay, conditions: 373.15 K; 101.33 kPa; Liquid; Concentric cylinders viscometry
row,viscosity [mPa·s],Compound
1,3.515 ± 0.14,OCCOCCOCCO [triethylene glycol]
2,0.921 ± 0.038,"CCOCCOCCO [3,6-dioxa-1-octanol]"
3,0.518 ± 0.021,CCOCCO [2-ethoxyethan-1-ol]
4,0.47 ± 0.02,CCOCCOCCOCC [diethylene glycol diethyl ether]

# Same assay, conditions: 373.15 K; 101.33 kPa; Liquid; Vibrating tube method
row,mass density [kg/m3],Compound
1,1061.9 ± 2,OCCOCCOCCO [triethylene glycol]
2,916.8 ± 4.1,"CCOCCOCCO [3,6-dioxa-1-octanol]"
3,856.3 ± 2,CCOCCO [2-ethoxyethan-1-ol]
4,831.6 ± 4,CCOCCOCCOCC [diethylene glycol diethyl ether]

# Experiment: refractive index (Na D-line) (dimensionless)
# Conditions: 283.15 K; 101.33 kPa; Liquid; Standard Abbe refractometry
row,refractive index,Compound
1,1.45944 ± 0.00061,OCCOCCOCCO [triethylene glycol]
2,1.4311 ± 0.0007,"CCOCCOCCO [3,6-dioxa-1-octanol]"
3,1.4149 ± 0.00061,CCOCCO [2-ethoxyethan-1-ol]
4,1.41658 ± 0.0007,CCOCCOCCOCC [diethylene glycol diethyl ether]

# Same assay, conditions: 288.15 K; 101.33 kPa; Liquid; Standard Abbe refractometry
row,refractive index,Compound
1,1.45774 ± 0.00061,OCCOCCOCCO [triethylene glycol]
2,1.42916 ± 0.0007,"CCOCCOCCO [3,6-dioxa-1-octanol]"
3,1.4125 ± 0.00061,CCOCCO [2-ethoxyethan-1-ol]
4,1.41428 ± 0.0007,CCOCCOCCOCC [diethylene glycol diethyl ether]

# Same assay, conditions: 293.15 K; 101.33 kPa; Liquid; Standard Abbe refractometry
row,refractive index,Compound
1,1.4561 ± 0.00061,OCCOCCOCCO [triethylene glycol]
2,1.42711 ± 0.0007,"CCOCCOCCO [3,6-dioxa-1-octanol]"
3,1.41024 ± 0.00061,CCOCCO [2-ethoxyethan-1-ol]
4,1.41202 ± 0.0007,CCOCCOCCOCC [diethylene glycol diethyl ether]

# Same assay, conditions: 298.15 K; 101.33 kPa; Liquid; Standard Abbe refractometry
row,refractive index,Compound
1,1.45447 ± 0.00061,OCCOCCOCCO [triethylene glycol]
2,1.42501 ± 0.0007,"CCOCCOCCO [3,6-dioxa-1-octanol]"
3,1.40803 ± 0.00061,CCOCCO [2-ethoxyethan-1-ol]
4,1.40978 ± 0.0007,CCOCCOCCOCC [diethylene glycol diethyl ether]

# Same assay, conditions: 303.15 K; 101.33 kPa; Liquid; Standard Abbe refractometry
row,refractive index,Compound
1,1.45283 ± 0.00061,OCCOCCOCCO [triethylene glycol]
2,1.4229 ± 0.0007,"CCOCCOCCO [3,6-dioxa-1-octanol]"
3,1.40613 ± 0.00061,CCOCCO [2-ethoxyethan-1-ol]
4,1.40749 ± 0.0007,CCOCCOCCOCC [diethylene glycol diethyl ether]

# Same assay, conditions: 313.15 K; 101.33 kPa; Liquid; Standard Abbe refractometry
row,refractive index,Compound
1,1.44955 ± 0.00061,OCCOCCOCCO [triethylene glycol]
2,1.41887 ± 0.0007,"CCOCCOCCO [3,6-dioxa-1-octanol]"
3,1.4018 ± 0.00061,CCOCCO [2-ethoxyethan-1-ol]
4,1.40296 ± 0.0007,CCOCCOCCOCC [diethylene glycol diethyl ether]

# Same assay, conditions: 323.15 K; 101.33 kPa; Liquid; Standard Abbe refractometry
row,refractive index,Compound
1,1.44626 ± 0.00061,OCCOCCOCCO [triethylene glycol]
2,1.41483 ± 0.0007,"CCOCCOCCO [3,6-dioxa-1-octanol]"
3,1.39691 ± 0.00061,CCOCCO [2-ethoxyethan-1-ol]
4,1.39838 ± 0.0007,CCOCCOCCOCC [diethylene glycol diethyl ether]

# Same assay, conditions: 333.15 K; 101.33 kPa; Liquid; Standard Abbe refractometry
row,refractive index,Compound
1,1.44293 ± 0.00061,OCCOCCOCCO [triethylene glycol]
2,1.41082 ± 0.0007,"CCOCCOCCO [3,6-dioxa-1-octanol]"
3,1.39271 ± 0.00061,CCOCCO [2-ethoxyethan-1-ol]
4,1.39382 ± 0.0007,CCOCCOCCOCC [diethylene glycol diethyl ether]

# Same assay, conditions: 343.15 K; 101.33 kPa; Liquid; Standard Abbe refractometry
row,refractive index,Compound
1,1.43956 ± 0.00061,OCCOCCOCCO [triethylene glycol]
2,1.40683 ± 0.0007,"CCOCCOCCO [3,6-dioxa-1-octanol]"
3,1.38849 ± 0.00061,CCOCCO [2-ethoxyethan-1-ol]
4,1.38929 ± 0.0007,CCOCCOCCOCC [diethylene glycol diethyl ether]

# Same assay, conditions: 353.15 K; 101.33 kPa; Liquid; Standard Abbe refractometry
row,refractive index,Compound
1,1.43622 ± 0.00061,OCCOCCOCCO [triethylene glycol]
2,1.40276 ± 0.0007,"CCOCCOCCO [3,6-dioxa-1-octanol]"
3,1.3838 ± 0.00061,CCOCCO [2-ethoxyethan-1-ol]
4,1.38474 ± 0.0007,CCOCCOCCOCC [diethylene glycol diethyl ether]
